Reference: BigSolDB 2.1

c1ccc(-n2c3ccccc3c3ccccc32)cc1
solubility (mole fraction)
Conditions	278.15 K	283.15 K	288.15 K	293.15 K	298.15 K	303.15 K	308.15 K	313.15 K
in 1,4-dioxane	–	–	0.124	0.213	0.292	0.417	0.514	0.717
in THF	0.249	0.274	0.309	0.346	0.386	0.439	0.497	0.562
in acetonitrile	0.00383	0.00413	0.00487	0.00582	0.00624	0.00735	0.00826	0.0102
in chloroform	0.237	0.262	0.322	0.399	0.461	0.555	0.651	0.753
in cyclohexane	–	0.034	0.0421	0.0523	0.0691	0.0815	0.101	0.132
in dichloromethane	0.223	0.246	0.311	0.385	0.453	0.548	0.644	–
in ethanol	0.00099	0.00167	0.00218	0.00271	0.00334	0.0042	0.00574	0.007
in isopropanol	0.001	0.00131	0.00215	0.00244	0.00303	0.004	0.00458	0.00591
in methanol	6.96e-05	0.00011	0.000178	0.000208	0.000251	0.000296	0.000427	0.00055
in n-butanol	0.00207	0.00219	0.00266	0.00333	0.00403	0.00468	0.00691	0.00919
in n-hexane	0.0355	0.0378	0.0431	0.0494	0.0552	0.0624	0.0703	0.078
in n-propanol	0.00298	0.00323	0.00412	0.00517	0.0061	0.00749	0.00936	0.0116
